Results as given in patent US20230144838A1, “THERANOSTIC SYSTEM FOR DIRECTED DIFFUSION OF THERAPEUTIC AND IMAGING AGENTS TO CANCER CELLS” (UNIVERSITAT POLITÈCNICA DE VALÈNCIA, priority 2019, published 2023).

System: LNCaP (with membrane receptors FOLH1)
Experiment: In vitro cytotoxic activity by MTT assay, LNCaP cells
Assay type: cell-based
Details: LNCaP human prostate adenocarcinoma cells, 72 hours, DTX equivalent concentration, n = 3, read-out: IC50 (mean ± SD)
Procedure: The in vitro cytotoxic activity of the theranostic system was determined by the 3-[4,5-dimethylthiazol-2-yl]-2,5-diphenyltetrazolium (MTT) bromide test. In these assays, the proliferation of living cells is determined via mitochondrial dehydrogenase activity: viable mitochondria reduce MTT by generating MTT-formazan crystals that are quantifiable by visible spectrophotometry.
Two types of human prostate adenocarcinoma cell lines were used for these assays: LNCaP (with membrane receptors FOLH1, PROTEIN DATA BANK ID FOLH1: 1Z8L) and PC3 (without FOLH1 receptors).
The cells are seeded in 96-well plates at a rate of 10,000 cells/well in both cases, 24 h before incorporating the nanoparticles. Aliquots of 3 mg ml-^1 of DTX in DMSO are prepared and kept at −20° C. When required, an aliquot is thawed, and working aliquots (100 μg/ml by dilution in enriched RPMI medium) are prepared. Alternatively, aliquots of 100 μg/mL DTX are prepared in enriched RPMI medium and kept at −20° C. until required. […]
At the end of the incubation period, 10 μl (5 mg/ml) of the MTT solution are added to each well and 4 hours later the formazan crystals are dissolved with isopropanol, and the absorbance at 570 nm is measured. The percentage of cell survival relative to untreated cells is determined and the values of IC50 from the curve DTX concentration-(%) live cells are calculated.

SMILES: CC(=O)O[C@@]12CO[C@@H]1C[C@H](O)[C@@]1(C)C(=O)[C@H](O)C3=C(C)[C@@H](OC(=O)[C@H](O)[C@@H](NC(=O)OC(C)(C)C)c4ccccc4)C[C@@](O)([C@@H](OC(=O)c4ccccc4)[C@H]21)C3(C)C [DTX, docetaxel]
- IC50: 0.8 ± 0.2 µg/mL
